Test results: US20260274892A1, “MACROCYCLIC BROAD SPECTRUM ANTIBIOTICS” (RQx Pharmaceuticals, Inc., priority 2017, published 2026)
Blank lines part the entries; values can stand above or below the molecule they belong to.

Test system: Escherichia coli ATCC 25922
Test: Minimum inhibitory concentration (MIC), CLSI broth micro-dilution, E. coli
Type: cell-based
Settings: Escherichia coli
Experimental: In vitro antimicrobial activity of each compound was determined by measuring minimal inhibitor concentrations (MICs) using the broth micro-dilution technique as approved by the Clinical and Laboratory Standards Institute (CLSI) (Methods for Dilution Antimicrobial Susceptibility Tests for Bacteria that Grow Aerobically; Approved Standard-Eighth Edition. CLSI document M07-A8. Wayne, PA: Clinical and Laboratroy Standards; 2009). Antibacterial activity was measure against two strains of bacteria: a Methicillin Resistant Staphylococcus aureus strain USA 200, (S. aureus) and Escherichia coli ATCC 25922 (E. coli), a clinically relevant Gram-negative strain. Cells were inoculated onto plates of Trypyticase Soy Agar or Luria Agar respectively and grown at 35° C. for 20 hours. Inocula suspensions were prepared by scraping cells into 1 mL of testing media (cation adjusted Mueller Hinton Broth supplemented with 0.002% v/v Tween-80) and diluting to a final OD600nm of 0.01.
Test compounds were prepared in DMSO at a concentration of 10 mg/mL. In protocol 1, the compound stocks were diluted into testing media at a concentration of 64 µg/ml and serial 2-fold dilutions were made in the same media, in 96-well U bottom microtiter dishes, for a total of 10 compound concentrations. In protocol 2, the compound stocks were diluted into testing media at a concentration of 4 µg/mL and serial 2-fold dilutions were made in the same media, in 96-well U bottom microtiter dishes, for a total of 10 compound concentrations. In protocol 3, compound stocks were diluted into testing media at a concentration of 0.5 μg/mL, with serial 2-fold dilutions conducted as described above. In protocol 4, compound stocks were diluted into testing media at a concentration of […], with serial 2-fold dilutions conducted as described above. Inocula suspensions were added to the 2-fold serial dilutions of test compounds to a final density of GD OD600nm of 0.0005 and incubated at 35° C. for 22 hours.

[1] = ATCC25922, 22 h, Table 7, cation adjusted Mueller Hinton Broth + 0.002% Tween-80, 35° C.
[2] = ATCC25922, Table 7, cation adjusted Mueller Hinton Broth + 0.002% Tween-80, 35° C., 22 hours
[3] = ATCC25922, Table 6, cation adjusted Mueller Hinton Broth + 0.002% Tween-80, 35° C., 22 hours

- MIC [1]: 0.26 µM
Compound: Cc1nc(-c2ccc(C(C)(C)C)cc2)nc(C)c1C(=O)N[C@@H](CCN)C(=O)N(C)[C@@H]1C(=O)N[C@@H](C)C(=O)N[C@H](C(=O)NCC#N)Cc2ccc(OCCCN)c(c2)-c2cc1ccc2O (racemic) [Compound 597, rac-(8S,11S,14S)-3-(3-aminopropoxy)-N-(cyanomethyl)-18-hydroxy-11-methyl-14-[methyl-[rac-(2S)-4-amino-2-[[2-(4-tert-butylphenyl)-4,6-dimethyl-pyrimidine-5-carbonyl]amino]butanoyl]amino]-10,13-dioxo-9,12-diazatricyclo[13.3.1.12,6]icosa-1(18),2(20),3,5,15(19),16-hexaene-8-carboxamide]

- MIC [1]: 0.094 µM
Compound: Cc1nc(-c2ccc(C(C)(C)C)cc2)nc(C)c1C(=O)N[C@@H](CCN)C(=O)N(C)[C@@H]1C(=O)N[C@@H](C)C(=O)N[C@H](C(=O)NCC#N)Cc2ccc(OCCN)c(c2)-c2cc1cc(OC[C@H](O)CN)c2O (racemic) [Compound 588, rac-(8S,11S,14S)-3-(2-aminoethoxy)-N-(cyanomethyl)-18-hydroxy-11-methyl-14-[methyl-[rac-(2S)-4-amino-2-[[2-(4-tert-butylphenyl)-4,6-dimethyl-pyrimidine-5-carbonyl]amino]butanoyl]amino]-10,13-dioxo-17-[rac-(2R)-3-amino-2-hydroxy-propoxy]-9,12-diazatricyclo[13.3.1.12,6]icosa-1(18),2(20),3,5,15(19),16-hexaene-8-carboxamide]

Compound: Cc1nc(-c2ccc(OCCC(C)(C)C)cn2)nc(N)c1C(=O)N[C@@H](CCN)C(=O)N(C)[C@@H]1C(=O)N[C@@H](C)C(=O)N[C@H](C(=O)NCC#N)Cc2ccc(OCCN)c(c2)-c2cc1ccc2OCCN (racemic) [Compound 534, rac-(8S,11S,14S)-3,18-bis(2-aminoethoxy)-N-(cyanomethyl)-11-methyl-14-[methyl-[rac-(2S)-4-amino-2-[[4-amino-2-[5-(3,3-dimethylbutoxy)-2-pyridyl]-6-methyl-pyrimidine-5-carbonyl]amino]butanoyl]amino]-10,13-dioxo-9,12-diazatricyclo[13.3.1.12,6]icosa-1(18),2(20),3,5,15(19),16-hexaene-8-carboxamide]
- MIC (ATCC25922, 22 h, Table 6, cation adjusted Mueller Hinton Broth + 0.002% Tween-80, 35° C.): 0.5 µM

Compound: COc1c(OCCN)cc2cc1-c1cc(ccc1OCCN)C[C@@H](C(=O)NCC#N)NC(=O)[C@H](C)NC(=O)[C@H]2N(C)C(=O)[C@H](CNS(N)(=O)=O)NC(=O)c1c(C)nc(-c2ccc(C(C)(C)C)cc2)nc1C (racemic) [Compound 585, rac-(8S,11S,14S)-3,17-bis(2-aminoethoxy)-N-(cyanomethyl)-18-methoxy-11-methyl-14-[methyl-[rac-(2S)-2-[[2-(4-tert-butylphenyl)-4,6-dimethyl-pyrimidine-5-carbonyl]amino]-3-(sulfamoylamino)propanoyl]amino]-10,13-dioxo-9,12-diazatricyclo[13.3.1.12,6]icosa-1(18),2(20),3,5,15(19),16-hexaene-8-carboxamide]
- MIC [2]: 0.38 µM

Compound: Cc1cc(-c2ccc(C(C)(C)C)cc2)ncc1C(=O)N[C@@H](CCN)C(=O)N(C)[C@@H]1C(=O)N[C@@H](C)C(=O)N[C@H](C(=O)NCC#N)Cc2ccc(OCCN)c(c2)-c2cc1ccc2OCCN (racemic) [Compound 215, rac-(8S,11S,14S)-3,18-bis(2-aminoethoxy)-N-(cyanomethyl)-11-methyl-14-[methyl-[rac-(2S)-4-amino-2-[[6-(4-tert-butylphenyl)-4-methyl-pyridine-3-carbonyl]amino]butanoyl]amino]-10,13-dioxo-9,12-diazatricyclo[13.3.1.12,6]icosa-1(18),2(20),3,5,15(19),16-hexaene-8-carboxamide]
- MIC [3]: 0.13 µM

Compound: C[C@@H]1NC(=O)[C@@H](N(C)C(=O)[C@H](CCN)NC(=O)N2CCC(c3ccc(C(C)(C)C)cc3)CC2)c2ccc(OCCN)c(c2)-c2cc(ccc2OCCN)C[C@@H](C(=O)NCC#N)NC1=O (racemic) [Compound 390, rac-(8S,11S,14S)-3,18-bis(2-aminoethoxy)-N-(cyanomethyl)-11-methyl-14-[methyl-[rac-(2S)-4-amino-2-[[4-(4-tert-butylphenyl)piperidine-1-carbonyl]amino]butanoyl]amino]-10,13-dioxo-9,12-diazatricyclo[13.3.1.12,6]icosa-1(18),2(20),3,5,15(19),16-hexaene-8-carboxamide]
- MIC [3]: 8 µM

Compound: Cc1nc(-c2ccc(C(C)(C)C)cc2)nc(C)c1C(=O)N[C@@H](CCN)C(=O)N(C)[C@@H]1C(=O)N[C@@H](C)C(=O)N[C@H](C(=O)NCC#N)Cc2cc(OCCN)c(O)c(c2)-c2cc1ccc2OCCN (racemic) [Compound 562, (4S,7S,10S)-10-((S)-4-amino-2-(2-(4-(tert-butyl)phenyl)-4,6-dimethylpyrimidine-5-carboxamido)-N-methylbutanamido)-16,25-bis(2-aminoethoxy)-N-(cyanomethyl)-26-hydroxy-7-methyl-6,9-dioxo-5,8-diaza-1,2(1,3)-dibenzenacyclodecaphane-4-carboxamide]
- MIC [2]: 0.094 µM

- MIC [1]: 0.5 µM
Compound: Cc1nc(-c2ccc(C(C)(C)C)cc2)nc(C)c1C(=O)N[C@@H](CNS(N)(=O)=O)C(=O)N(C)[C@@H]1C(=O)N[C@@H](C)C(=O)N[C@H](C(=O)NCC#N)Cc2ccc(OCCN)c(c2)-c2cc1cc(OCCN)c2O (racemic) [Compound 584, rac-(8S,11S,14S)-3,17-bis(2-aminoethoxy)-N-(cyanomethyl)-18-hydroxy-11-methyl-14-[methyl-[rac-(2S)-2-[[2-(4-tert-butylphenyl)-4,6-dimethyl-pyrimidine-5-carbonyl]amino]-3-(sulfamoylamino)propanoyl]amino]-10,13-dioxo-9,12-diazatricyclo[13.3.1.12,6]icosa-1(18),2(20),3,5,15(19),16-hexaene-8-carboxamide]

- MIC [1]: 0.25 µM
Compound: Cc1nc(-c2ccc(C(C)(C)C)cc2)nc(C)c1C(=O)N[C@@H](CCN)C(=O)N(C)[C@@H]1C(=O)N[C@@H](C)C(=O)N[C@H](C(=O)NCC#N)Cc2ccc(OC[C@H](N)CO)c(c2)-c2cc1ccc2O (racemic) [Compound 612, rac-(8S,11S,14S)-N-(cyanomethyl)-18-hydroxy-11-methyl-14-[methyl-[rac-(2S)-4-amino-2-[[2-(4-tert-butylphenyl)-4,6-dimethyl-pyrimidine-5-carbonyl]amino]butanoyl]amino]-10,13-dioxo-3-[rac-(2R)-2-amino-3-hydroxy-propoxy]-9,12-diazatricyclo[13.3.1.12,6]icosa-1(18),2(20),3,5,15(19),16-hexaene-8-carboxamide]

Compound: CONCC[C@H](NC(=O)c1cnc(-c2ccc(C(C)(C)C)cc2)nc1C)C(=O)N(C)[C@@H]1C(=O)N[C@@H](C)C(=O)N[C@H](C(=O)NCC#N)Cc2ccc(OCCN)c(c2)-c2cc1ccc2OCCN (racemic) [Compound 460, rac-(8S,11S,14S)-3,18-bis(2-aminoethoxy)-N-(cyanomethyl)-11-methyl-14-[methyl-[rac-(2S)-2-[[2-(4-tert-butylphenyl)-4-methyl-pyrimidine-5-carbonyl]amino]-4-(methoxyamino)butanoyl]amino]-10,13-dioxo-9,12-diazatricyclo[13.3.1.12,6]icosa-1(18),2(20),3,5,15(19),16-hexaene-8-carboxamide]
- MIC [3]: 4.1 µM

Compound: COc1cc(O)c2cc1-c1cc(ccc1OCCN)[C@H](N(C)C(=O)[C@H](CCN)NC(=O)c1c(C)nc(-c3ccc(C(C)(C)C)cc3)nc1C)C(=O)N[C@@H](C)C(=O)N[C@H](C(=O)NCC#N)C2 (racemic) [Compound 625, rac-(8S,11S,14S)-18-(2-aminoethoxy)-N-(cyanomethyl)-5-hydroxy-3-methoxy-11-methyl-14-[methyl-[rac-(2S)-4-amino-2-[[2-(4-tert-butylphenyl)-4,6-dimethyl-pyrimidine-5-carbonyl]amino]butanoyl]amino]-10,13-dioxo-9,12-diazatricyclo[13.3.1.12,6]icosa-1(18),2(20),3,5,15(19),16-hexaene-8-carboxamide]
- MIC [2]: 0.38 µM

- MIC [1]: 1 µM
Compound: Cc1nc(-c2ccc(C(C)(C)C)cc2)nc(C)c1C(=O)N[C@@H](CCN)C(=O)N(C)[C@@H]1C(=O)N[C@@H](C)C(=O)N[C@H](C(=O)NCC#N)Cc2ccc(OCCN)c(c2)-c2cc1cc(NCCN)c2O (racemic) [Compound 589, rac-(8S,11S,14S)-3-(2-aminoethoxy)-17-(2-aminoethylamino)-N-(cyanomethyl)-18-hydroxy-11-methyl-14-[methyl-[rac-(2S)-4-amino-2-[[2-(4-tert-butylphenyl)-4,6-dimethyl-pyrimidine-5-carbonyl]amino]butanoyl]amino]-10,13-dioxo-9,12-diazatricyclo[13.3.1.12,6]icosa-1(18),2(20),3,5,15(19),16-hexaene-8-carboxamide]
